Here are results for 30 molecules from ChEMBL document CHEMBL6114961, “Novel isoxazole thiophene-containing compounds active against Mycobacterium tuberculosis” (Bioorg Med Chem Lett, 2025).

≈ marks a conversion by molar mass, not a printed value.

One data set concerns HepG2. Briefly: Cytotoxicity against human HepG2 cells measured after 3 days by Cell Titer-Glo Luminescent Cell Viability Assay. The note with it: HepG2, 72 h, time 3 day. It counts as functional.
Data set [1] relates to Mycobacterium tuberculosis. Briefly: Antituberculosis activity against Mycobacterium tuberculosis H37Rv infected in human THP-1 cells assessed as reduction in bacterial growth pre-infected with bacteria for 24 hrs followed by compound addition and measured 3 days by luminescence based intramacrophage assay. It counts as functional, organism-based.
The nature of data set [2]: Plasma concentration in male CD-1 mouse at 20 mg/kg, po measured for 14 hrs. The class given is ADME, organism-based.
Data set [3] can be described thus: Plasma protein binding in mouse assessed as unbound fraction. It counts as ADME, cell-free.
A short description of data set [4]: Cmax in male CD-1 mouse at 20 mg/kg, po. It counts as ADME, organism-based. The settings on record: in vivo.
Data set [5] concerns Mycobacterium tuberculosis. Briefly: Bactericidal activity against non-replicating Mycobacterium tuberculosis Hu-Coates model assessed as reduction in CFU at 20 uM in presence of BPaL. The class given is functional.
Data set [6] is described as follows: Oral bioavailability in male CD-1 mouse at 20 mg/kg. The class given is ADME, organism-based. The note with it: in vivo.
A short description of data set [7]: Selectivity index, ratio of CC50 for Cytotoxicity against human HepG2 cells to MIC for antituberculosis activity against Mycobacterium tuberculosis H37Rv assessed as reduction in bacterial growth. The note with it: read-out: Selectivity Index. It counts as toxicity, cell-based, Hep G2.
Data set [8] can be described thus: Tmax in male CD-1 mouse at 20 mg/kg, po. It counts as ADME, organism-based. The note with it: in vivo.
The nature of data set [9]: Metabolic stability in mouse liver microsomes assessed as intrinsic clearance. The class given is ADME, Microsome. The settings on record: read-out: CLH.
The nature of data set [10]: AUC (0 tot 24 hrs) in male CD-1 mouse at 3 mg/kg, iv. The class given is ADME, organism-based. The note with it: in vivo.
The nature of data set [11]: Apparent permeability in human Caco-2 cells across apical to basolateral side. It counts as ADME, cell-based.
A further data set deals with Cytochrome P450 2D6 (Homo sapiens, UniProt P10635). Briefly: Inhibition of CYP2D6 (unknown origin). It counts as ADME.
A short description of data set [12]: AUC (0 tot 24 hrs) in male CD-1 mouse at 20 mg/kg, po. The note with it: in vivo. It counts as ADME, organism-based.
Data set [13] can be described thus: Apparent permeability in human Caco-2 cells across basolateral side to apical side. It counts as ADME, cell-based.
In data set [14] the target is Voltage-gated inwardly rectifying potassium channel KCNH2 (Homo sapiens, UniProt Q12809). The data set is described as follows: Inhibition of human ERG. It counts as toxicity.
The test system of data set [15] is Mycobacterium tuberculosis. Briefly: Antituberculosis activity against Mycobacterium tuberculosis H37Rv assessed as reduction in bacterial growth measured after 7 days using 7H9 broth by Alamar blue staining based analysis. The settings on record: 168 h, time 7 day. It counts as functional.
The nature of data set [16]: Half life in male CD-1 mouse at 20 mg/kg, po. The class given is ADME, organism-based. The note with it: in vivo.
The next data set concerns the target Cytochrome P450 2C19 (Homo sapiens, UniProt P33261). The data set is described as follows: Inhibition of CYP2C19 (unknown origin). It counts as ADME.
A further data set has as its target Cytochrome P450 2C9 (Homo sapiens, UniProt P11712). The data set is described as follows: Inhibition of CYP2C9 (unknown origin). It counts as ADME.
Data set [17] is described as follows: MRT (0 tot 24 hrs) in male CD-1 mouse at 20 mg/kg, po. It counts as ADME, organism-based. The note with it: in vivo.
The next data set concerns the target T1, Cytochrome P450 1A2 (Homo sapiens, UniProt P05177).
T1 sequence (P05177 whole entry): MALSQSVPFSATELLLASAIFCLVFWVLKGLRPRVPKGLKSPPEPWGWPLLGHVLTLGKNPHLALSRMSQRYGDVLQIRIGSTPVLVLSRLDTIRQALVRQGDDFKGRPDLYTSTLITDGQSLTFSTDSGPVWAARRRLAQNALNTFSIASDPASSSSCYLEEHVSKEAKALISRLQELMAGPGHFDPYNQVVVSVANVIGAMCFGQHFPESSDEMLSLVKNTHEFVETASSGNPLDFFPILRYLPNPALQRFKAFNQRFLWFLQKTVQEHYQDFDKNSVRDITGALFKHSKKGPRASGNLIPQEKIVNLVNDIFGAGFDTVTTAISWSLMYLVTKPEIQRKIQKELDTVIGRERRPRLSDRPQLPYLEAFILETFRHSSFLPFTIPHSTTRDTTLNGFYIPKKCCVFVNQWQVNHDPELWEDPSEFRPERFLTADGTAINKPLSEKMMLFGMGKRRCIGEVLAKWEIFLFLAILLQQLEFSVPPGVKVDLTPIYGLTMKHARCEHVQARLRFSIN
Briefly: Inhibition of CYP1A2 (unknown origin). The class given is ADME.

Another data set deals with Cytochrome P450 3A4 (Homo sapiens, UniProt P08684). The data set is described as follows: Inhibition of CYP3A4 (unknown origin). It counts as ADME.
Data set [18] has as its system Mycobacterium tuberculosis. Briefly: Bactericidal activity against non-replicating Mycobacterium tuberculosis Hu-Coates model assessed as reduction in CFU at 20 uM. It counts as functional.
A short description of data set [19]: Plasma concentration in male CD-1 mouse at 20 mg/kg, po measured for 6 hrs. It counts as ADME, organism-based.

Cytochrome P450 2C19, sequence (P33261 whole entry): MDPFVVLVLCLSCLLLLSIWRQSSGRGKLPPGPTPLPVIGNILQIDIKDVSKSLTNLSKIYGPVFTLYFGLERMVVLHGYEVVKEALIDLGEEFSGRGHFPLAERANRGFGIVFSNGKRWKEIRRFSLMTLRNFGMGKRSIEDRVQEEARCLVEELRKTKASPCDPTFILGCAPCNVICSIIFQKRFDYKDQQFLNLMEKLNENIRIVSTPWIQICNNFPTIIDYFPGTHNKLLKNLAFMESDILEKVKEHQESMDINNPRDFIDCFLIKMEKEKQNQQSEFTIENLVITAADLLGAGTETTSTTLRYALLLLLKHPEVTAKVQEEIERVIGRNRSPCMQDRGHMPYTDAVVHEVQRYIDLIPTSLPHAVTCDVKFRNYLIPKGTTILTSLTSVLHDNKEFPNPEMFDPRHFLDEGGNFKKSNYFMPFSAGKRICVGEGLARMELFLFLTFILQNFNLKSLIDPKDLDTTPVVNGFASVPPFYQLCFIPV
Cytochrome P450 3A4, sequence (P08684 whole entry): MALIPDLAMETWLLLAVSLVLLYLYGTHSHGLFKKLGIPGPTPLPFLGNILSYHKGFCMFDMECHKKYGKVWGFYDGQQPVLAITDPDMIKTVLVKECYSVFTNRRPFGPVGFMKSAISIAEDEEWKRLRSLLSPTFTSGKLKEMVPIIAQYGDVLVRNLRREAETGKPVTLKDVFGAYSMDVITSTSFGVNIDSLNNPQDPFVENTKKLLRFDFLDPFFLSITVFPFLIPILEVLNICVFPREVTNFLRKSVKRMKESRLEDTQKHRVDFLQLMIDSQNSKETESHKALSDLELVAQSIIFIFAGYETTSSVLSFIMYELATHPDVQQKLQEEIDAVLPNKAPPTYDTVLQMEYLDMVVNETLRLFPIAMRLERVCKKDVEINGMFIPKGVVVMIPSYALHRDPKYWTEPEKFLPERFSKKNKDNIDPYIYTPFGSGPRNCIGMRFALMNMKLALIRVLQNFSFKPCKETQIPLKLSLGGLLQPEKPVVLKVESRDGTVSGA
Voltage-gated inwardly rectifying potassium channel KCNH2, sequence (Q12809 whole entry): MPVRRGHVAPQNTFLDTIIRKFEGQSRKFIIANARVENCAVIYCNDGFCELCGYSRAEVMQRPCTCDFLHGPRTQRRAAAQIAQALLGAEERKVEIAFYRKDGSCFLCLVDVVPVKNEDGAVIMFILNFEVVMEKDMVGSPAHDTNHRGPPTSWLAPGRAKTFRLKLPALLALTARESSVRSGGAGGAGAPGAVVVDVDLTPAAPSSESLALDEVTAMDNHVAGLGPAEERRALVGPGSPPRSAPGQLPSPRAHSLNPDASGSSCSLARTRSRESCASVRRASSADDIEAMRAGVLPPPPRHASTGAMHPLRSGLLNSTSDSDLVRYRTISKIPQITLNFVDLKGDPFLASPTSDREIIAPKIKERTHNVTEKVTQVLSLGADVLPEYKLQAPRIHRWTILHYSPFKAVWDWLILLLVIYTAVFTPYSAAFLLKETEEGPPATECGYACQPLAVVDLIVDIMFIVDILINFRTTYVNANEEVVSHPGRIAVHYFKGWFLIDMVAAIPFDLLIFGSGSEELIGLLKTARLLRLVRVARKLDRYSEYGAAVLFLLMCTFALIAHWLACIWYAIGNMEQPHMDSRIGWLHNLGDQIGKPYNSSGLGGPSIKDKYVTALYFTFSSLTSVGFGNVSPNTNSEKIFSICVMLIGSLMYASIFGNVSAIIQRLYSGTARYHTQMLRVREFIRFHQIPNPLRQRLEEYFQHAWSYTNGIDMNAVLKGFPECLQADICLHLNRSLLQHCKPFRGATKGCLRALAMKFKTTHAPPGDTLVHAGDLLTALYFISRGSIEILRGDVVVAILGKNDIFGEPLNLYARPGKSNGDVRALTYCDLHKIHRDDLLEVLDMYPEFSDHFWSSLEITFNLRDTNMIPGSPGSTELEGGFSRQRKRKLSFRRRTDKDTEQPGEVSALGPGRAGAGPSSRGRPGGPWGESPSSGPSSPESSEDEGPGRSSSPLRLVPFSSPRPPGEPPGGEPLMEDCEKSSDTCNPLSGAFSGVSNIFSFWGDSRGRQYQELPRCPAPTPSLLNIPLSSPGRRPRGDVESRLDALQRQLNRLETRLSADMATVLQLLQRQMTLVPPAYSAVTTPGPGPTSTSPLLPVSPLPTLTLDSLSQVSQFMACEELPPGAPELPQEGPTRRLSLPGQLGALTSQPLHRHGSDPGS
Cytochrome P450 2D6, sequence (P10635 whole entry): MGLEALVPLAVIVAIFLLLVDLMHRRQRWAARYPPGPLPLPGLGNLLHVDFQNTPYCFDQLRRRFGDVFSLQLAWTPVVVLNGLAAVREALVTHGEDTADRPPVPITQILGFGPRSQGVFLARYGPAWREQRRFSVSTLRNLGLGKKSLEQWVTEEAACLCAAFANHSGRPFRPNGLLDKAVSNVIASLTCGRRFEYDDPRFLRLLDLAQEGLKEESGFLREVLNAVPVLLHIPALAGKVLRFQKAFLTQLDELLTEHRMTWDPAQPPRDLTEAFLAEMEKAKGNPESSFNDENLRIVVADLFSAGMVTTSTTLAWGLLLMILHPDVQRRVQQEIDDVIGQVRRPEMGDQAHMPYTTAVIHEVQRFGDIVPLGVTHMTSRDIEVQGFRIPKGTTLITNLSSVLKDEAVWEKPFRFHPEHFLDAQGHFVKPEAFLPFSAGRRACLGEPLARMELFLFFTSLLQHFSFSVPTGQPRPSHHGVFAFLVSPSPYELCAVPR
Cytochrome P450 2C9, sequence (P11712 whole entry): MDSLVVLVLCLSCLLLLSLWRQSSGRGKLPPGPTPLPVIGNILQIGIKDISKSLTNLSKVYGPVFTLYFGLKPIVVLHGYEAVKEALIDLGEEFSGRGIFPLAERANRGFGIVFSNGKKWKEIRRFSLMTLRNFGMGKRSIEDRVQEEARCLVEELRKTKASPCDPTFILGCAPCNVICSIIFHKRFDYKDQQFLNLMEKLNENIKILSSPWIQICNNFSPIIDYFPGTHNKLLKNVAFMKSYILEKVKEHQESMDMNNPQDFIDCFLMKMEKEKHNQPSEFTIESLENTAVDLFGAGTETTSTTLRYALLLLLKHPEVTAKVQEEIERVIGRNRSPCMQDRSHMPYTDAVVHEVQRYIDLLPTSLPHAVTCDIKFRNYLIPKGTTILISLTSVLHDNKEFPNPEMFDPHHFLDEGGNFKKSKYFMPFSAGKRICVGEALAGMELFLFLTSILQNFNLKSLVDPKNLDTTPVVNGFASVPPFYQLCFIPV

Take `O=S(=O)(Nc1cc(-c2ccsc2)no1)C1CCOC1` (stereo unspecified): the CC50 in the data set on HepG2 was above 40 µM. Besides, the EC50 in data set [1] is above 25 µM.
As to `O=S(=O)(Nc1cc(-c2ccsc2)no1)c1c(F)cccc1F`, in the data set with HepG2, the CC50 is above 40 µM. The EC50 in data set [1] worked out at 13.9 µM.
The matching figures for `O=S(=O)(Nc1cc(-c2csc(C(F)(F)F)c2)no1)c1ccccc1F`: above 40 µM and above 25 µM.
`O=S(=O)(Nc1cc(-c2ccsc2)no1)c1cccc(F)c1` registered a CC50 in the data set on HepG2 above 40 µM. The EC50 in data set [1] was found to be 24.4 µM.
The molecule `Cc1cc(-c2cc(NS(=O)(=O)c3ccccc3F)on2)c(C)s1` showed a CC50 with HepG2 above 40 µM. In addition, in [1], the EC50 stood at 24.8 µM.
In the data set with HepG2, `CN(c1cc(-c2ccsc2)no1)S(=O)(=O)c1ccccc1F` gave a CC50 above 40 µM. Moreover, the 50% effective concentration (EC50) in [1] is 12.6 µM.
The molecule `O=S(=O)(Nc1cc(-c2ccsc2)no1)c1ccc2c(c1)CC2` had a CC50 with HepG2 above 40 µM. Further, the concentration for a half-maximal effect (EC50) in [1] worked out at 3.65 µM.
In turn, `O=S(=O)(Nc1cc(-c2ccsc2)no1)c1ccccc1` gave a CC50 with HepG2 above 40 µM. For the same molecule, the EC50 in data set [1] was above 25 µM.
The corresponding values for `O=S(=O)(Nc1cc(-c2ccsc2)no1)c1cccc(F)c1F` are above 40 µM and above 25 µM.
As to `CC1(C)COCCC1S(=O)(=O)Nc1cc(-c2ccsc2)no1` (stereo unspecified), the CC50 in the data set with HepG2 was above 40 µM. Also, the EC50 in data set [1] was above 25 µM.
The molecule `O=S(=O)(Nc1cc(-c2ccsc2)no1)c1ccccc1Cl` displayed a CC50 in the data set on HepG2 above 40 µM. Besides, in [1], the EC50 stood at 14.8 µM.
For `O=S(=O)(Nc1cc(-c2ccsc2)no1)c1cc(F)ccc1F`, the CC50 with HepG2 is above 40 µM. Moreover, the EC50 in [1] was above 25 µM.
Consider `O=S(=O)(Nc1cc(-c2ccsc2)no1)c1ccc(F)cc1F`, for which, in the data set on HepG2, the CC50 is above 40 µM. Moreover, the EC50 in [1] was determined as 24.9 µM.
`O=S(=O)(Nc1cc(-c2ccsc2)no1)C1CCC(F)(F)CC1` yielded a CC50 in the data set with HepG2 above 40 µM. Also, in data set [1], the half-maximal effective concentration (EC50) was above 25 µM.
`O=S(=O)(Nc1cc(-c2ccsc2)no1)c1ccc2c(c1)CCC2` yielded a CC50 in the data set with HepG2 above 40 µM. Also, the EC50 in data set [1] worked out at 24.9 µM.
The molecule `O=S(=O)(CC1CCOCC1)Nc1cc(-c2ccsc2)no1` gave a CC50 with HepG2 above 40 µM. In addition, in data set [1], the 50% effective concentration (EC50) was above 25 µM.
On to `O=S(=O)(Nc1noc(-c2ccsc2)n1)C1CCOCC1`, for which the EC50 in data set [1] is above 25 µM.
In turn, `O=S(=O)(Nc1cc(-c2ccsc2)no1)C1CCCCC1` displayed a CC50 with HepG2 above 40 µM. Besides, in data set [1], the EC50 was 24.9 µM.
As for `O=C(Nc1cc(-c2ccsc2)no1)c1ccccc1F`, the CC50 with HepG2 is above 40 µM. Moreover, the EC50 in data set [1] was found to be 22.8 µM.
Consider `O=S(=O)(Nc1cc(-c2ccsc2)no1)c1cccnc1F`, for which the CC50 in the data set with HepG2 was above 40 µM. Besides, in [1], the EC50 was above 25 µM.
As for `O=S(=O)(Nc1cc(-c2cscn2)no1)C1CCOCC1`, in the data set on HepG2, the CC50 is above 40 µM. For the same molecule, the EC50 in data set [1] is above 25 µM.
In turn, `O=S(=O)(Nc1cc(-c2ccoc2)no1)C1CCOCC1` yielded a CC50 in the data set with HepG2 above 40 µM. In [1], the EC50 is above 25 µM.
The corresponding values for `O=S(=O)(Nc1cc(-c2ccsn2)no1)C1CCOCC1` are above 25 µM and above 25 µM.
`O=S(=O)(Nc1cc(-c2ccsc2)no1)c1ccccc1F` returned a concentration at 14 h in data set [2] of 949 ng/mL. The fraction unbound in data set [3] was determined as 0.996. In addition, the Cmax in [4] stood at 64200 ng/mL. Moreover, the figures for the Activity in data set [5] and in [18] were 3 log10CFU and 1.02 log10CFU, respectively. Further, the bioavailability in [6] stood at 78%. The CC50 in the data set on HepG2 was above 40 µM. In data set [7], the selectivity ratio was above 32. Moreover, the Tmax in data set [8] turned out to be 0.67 h. Also, the microsomal CLint in data set [9] is 5.6 µL/min/mg. Moreover, the AUC in [10] amounted to 50981 ng·min/mL. Moreover, the Papp A→B in data set [11] turned out to be 3.6 ×10⁻⁶ cm/s. Moreover, the IC50 was above 50 µM against Cytochrome P450 2D6; above 30 µM in data set [14]; 28.2 µM against Cytochrome P450 2C19; 3.2 µM at Cytochrome P450 2C9; above 50 µM on Cytochrome P450 1A2; above 50 µM on Cytochrome P450 3A4. For the same molecule, in data set [12], the AUC(0-t) at 24 h is 4450 ng·h/mL. Further, the Papp B→A in data set [13] was 27.3 ×10⁻⁶ cm/s. Also, the MIC90 in data set [15] came to 1.24 µM (≈ 0.402 µg/mL). The EC50 in data set [1] was 2.93 µM. For the same molecule, the half-life in data set [16] is 1.83 h. This molecule also gave an MRT last at 24 h in [17] of 3.44 h.
The molecule `O=S(=O)(Nc1cc(-c2csc(Cl)c2)no1)C1CCOCC1` returned a CC50 with HepG2 above 40 µM. Further, in data set [1], the EC50 is above 25 µM.
In the data set with HepG2, `O=S(=O)(Nc1cc(-c2ccsc2)no1)C1CCNCC1` yielded a CC50 above 40 µM. Further, in data set [1], the EC50 is above 25 µM.
The matching figures for `O=S(=O)(Nc1cc(-c2cccnc2)no1)c1ccccc1F`: above 40 µM and 24.8 µM.
Turning to `O=S(=O)(Nc1cc(-c2ccsc2)no1)c1c(F)cc(F)cc1F`, the CC50 with HepG2 is above 40 µM. The EC50 in data set [1] is above 25 µM.
In the data set on HepG2, `O=S(=O)(Nc1cc(-c2cccs2)no1)C1CCOCC1` had a CC50 above 40 µM. Besides, in data set [1], the EC50 is above 25 µM.
`O=S(=O)(Nc1cc(-c2ccsc2)no1)C1CCOCC1`: the fraction unbound in data set [3] was 0.845. This molecule came in with a Cmax in data set [4] of 24200 ng/mL. This molecule returned a bioavailability in data set [6] of 58%. The CC50 in the data set on HepG2 is above 40 µM. Besides, the Tmax in data set [8] amounted to 0.67 h. Moreover, the microsomal CLint in [9] came to 0.2 µL/min/mg. For the same molecule, the AUC in data set [10] was 11076 ng·min/mL. This molecule came in with a concentration at 6 h in data set [19] of 613 ng/mL. Further, the AUC(0-t) at 24 h in [12] was 713 ng·h/mL. Also, the EC50 in data set [1] worked out at 1.96 µM. Further, the half-life in [16] was 2.19 h. Besides, in data set [17], the MRT last at 24 h is 1.7 h.
